How the values were obtained:
carbonic anhydrase = conditions: cited from earlier work
[1] = ALLHAT study; cited from earlier work
[2] = Description: The dissolution curves represent the expression of the release mechanism of active principles within the pharmaceutical form. Thus, it is possible to modulate the release to protect the active pharmaceutical principle, besides of improving the solubilization conditions. Excipients are used to optimize the behavior of the active pharmaceutical principle.

solubility in water [2]	Compound	inhibition of carbonic anhydrase (carbonic anhydrase)	efficacy and prevention of cardiovascular complications compared with other drugs [1]
–	NS(=O)(=O)c1cc2c(cc1Cl)NCNS2(=O)=O [hydrochlorothiazide]	very weak inhibitors	as effective as other drugs and further prevents more cardiovascular complications than other drugs
freely soluble	CCCCc1nc(Cl)c(CO)n1Cc1ccc(-c2ccccc2-c2nn[nH]n2)cc1 [losartan]	–	–

— US20160287558A1, “ORAL PHARMACEUTICAL FORM FOR PREVENTING VASCULAR DISEASES, TABLET AS PHARMACEUTICAL FORM AND GELATIN CAPSULE AS PHARMACEUTICAL FORM” (HYPERMARCAS S.A., priority 2013, published 2016)
